Assay results from PMC8533299, “Synthesis, In Silico Study, and Anti-Cancer Activity of Thiosemicarbazone Derivatives” (Biomedicines, 2021).
In brackets after ≈: the same amount, converted by molar mass.

Legend:
[1] = Solubility of the obtained compound in solvents; assay type: physicochemical
Method: 3-Methoxybenzaldehyde thiosemicarbazone (C9H11N3OS; (2E)-2-(3-methoxybenzylidene) hydrazine carbothioamide) (3MBTSc) was prepared by using the previous procedure with slight modifications. It was prepared by refluxing a mixture of thiosemicarbazide ([…], 0.01 mmol) and 3-Methoxybenzaldehyde (2.67 mL, 0.01 mmol) in a mixture of 20 mL distilled water and 20 mL methanol as the solvent medium in the presence of glacial acetic acid (2–3 mL). The reaction mixture was refluxed for about 3–4 h. After cooling, the yellow crystalline solid separated was filtered, washed, and dried. The yield of the compound was 2.16 g and the obtained compound was insoluble in CHCl3, CCl4, CH3CN, H2O, ethanol, and methanol but it was soluble in DMSO and DHF/THF. The following characterization was carried out to confirm the synthesis of 3-Methoxybenzaldehyde thiosemicarbazone by FTIR (cm^−1): v(NH2) 3403s; 3287s; v(-NH) 3150s; 1599s v(C=N); v(C=S) 1246s, 836s, ^1H-NMR (DMSO-d^6, ppm): 11.40 (s, 1H); 8.19 (s, 2H); 6.95–7.44 (m, ar-H); 3.80 (s, 3H), and ^13C-NMR (DMSO-d^6, ppm): 178.9 (s, C=S), 55.76 (s, OCH3), 111-143 (m-Ph-C), 159.6 (s, C=N).
4-Nitrobenzaldehyde thiosemicarbazone ((2E)-2-(4-nitrobenzylidene) hydrazine carbothioamide) (4NBTSc) was synthesized using earlier reported methods with slight modifications. A mixture of 1.51 g (0.01 mmol) of 4-Nitrobenzaldehyde, and 0.914 g (0.01 mmol) thiosemicarbazide was stirred for 2 h using 15 mL of methanol and 15 mL of distilled water as a solvent medium. The resulting yellow solution was allowed to cool. Then, a yellow crystalline solid separated was filtered, washed with diethyl ether and dried. The yield of the compound was 2.30 g and the obtained compound was insoluble in CHCl3, CCl4, CH3CN, H2O, ethanol, and methanol but it was soluble in DMSO and DHF/THF. The following characterization was carried out to confirm the synthesis of 4-Nitrobenzaldehyde thiosemicarbazone by FTIR (cm^−1): v(NH2) 3499m; 3373s; v(-NH) 3197s; 1588s; 1343s (v(NO2); v(C=N); v(C=S) 1137s, 750s, ^1H-NMR (DMSO-d^6, ppm): 11.66 (s, 1H); 8.38 (s, 2H); 8.32–8.03 (m, ar-H), and ^13C-NMR (DMSO-d^6, ppm): 179 (s, C=S), 128-141 (m-Ph-C), 148.06(s, C=N), 124.23 (s, CH).

B16-F0 (Mouse melanoma) = test: MTT test on B16-F0 cells; assay type: cell-based; conditions: for IC50: Mus musculus, B16F0, B16-F0 cells, MTT, till 48 h
Method: (§1) The in vitro anticancer activities of the synthesized compounds were conducted using different cancerous and non-cancerous cell lines viz B16-F0 (Mouse melanoma), mouse Ehrlich Ascites Carcinoma (EAC), MCF-7 (Human breast cancer), MCF-10A (Human breast epithelial cells), and NIH/3T3 (Mouse fibroblast cells). All cell lines were procured from the National Centre for Cell Science, Pune, India. The procured cells were cultured in a six-well culture plate with Dulbecco’s Modified Eagle’s Medium (DMEM) supplemented with 10% fetal bovine serum in a humid CO2 incubator with 5% carbon dioxide at 37 °C.
(§2) The anti-cancer effect and cytotoxicity of both 3-MBTSc and 4-NBTSc compounds were evaluated against different cancerous (MCF-7, EAC, B16-F0 cells) and noncancerous cells (MCF-10A, NIH-3T3 cells) using MTT test. In brief, the stock solutions of both the tested compounds were prepared by dissolving 1 mg of each compound in 1 mL of DMSO separately. Then, four different concentrations (5, 10, 12, and 20 µg/mL) of both compounds were used during the test along with the negative control. Also, 10 μg/mL of doxorubicin (Dox) was used as the positive control during the experiment. Both untreated and treated cells were incubated for next 24 and 48 h. Then, all the steps during the whole experiment were carried out by our earlier reported procedure. Later, the absorbance values were measured by an ELISA reader (Biorad, Hercules, CA, USA) at 570 nm wavelength using secondary wavelength as a reference at 620 nm and the percentages of cell viability was calculated using the following formula [59, 60, 61]. Cell viability (%)= Mean absorbance of treated cells/Mean absorbance of untreated cells × 100
(§3) Based on the cell viability data, the IC50 values of both compounds were calculated on different cancer cells by plotting their corresponding dose-responsive graphs.
(§4) The obtained data were statistically analyzed. The descriptive analysis was done and the IC50 values were calculated by fitting the sigmoidal dose responsive graph using GraphPad Prism (GraphPad Software, Inc., La Jolla, CA, USA). […]

[2] = test system: mouse Ehrlich Ascites Carcinoma (EAC); test: MTT test on EAC cells; assay type: cell-based; conditions: for IC50: Mus musculus, Ehrlich, EAC cells, MTT, till 48 h
Method: as §1, §2, §3, §4

SMILES | solubility in CHCl3, CCl4, CH3CN, H2O, ethanol, and methanol [1] | solubility in DMSO and DHF/THF [1] | inhibition of cell growth (B16-F0 (Mouse melanoma); B16-F0 cell line, MTT assay) | IC50 (B16-F0 (Mouse melanoma)) | inhibition of cell growth ([2]; EAC cell line, MTT assay) | IC50 [2]
COc1cccc(C=NNC(N)=S)c1 [3-MBTSc, 3-Methoxybenzaldehyde thiosemicarbazone] | insoluble | soluble | 50.42% | 2.904 ± 0.013 µg/mL (≈ 13.9 µM) | 50.31% | 3.355 ± 0.012 µg/mL (≈ 16 µM)
NC(=S)N[N-][CH+]c1ccc([N+](=O)[O-])cc1 [4-NBTSc, 4-Nitrobenzaldehyde thiosemicarbazone] | insoluble | soluble | – | 7.129 ± 0.012 µg/mL (≈ 31.8 µM) | – | 3.832 ± 0.014 µg/mL (≈ 17.1 µM)
